This data set addresses CD137 (Homo sapiens, UniProt Q07011). As to the kind of experiment: CD137 reporter assay, co-culture with PD-L1 expressing cell line RKO. Format: cell-based. Details: host or cells: Jurkat reporter cells. The settings on record: tumour target PD-L1, co-culture with RKO, 6 h. The procedure: Culture medium referred to as R1 media is prepared by adding 1% FBS to RPMI-1640 (component of Promega kit CS196005). Serial dilutions of test articles in R1 are prepared in a sterile 96 well-plate. Use 25 μl per well of test articles or R1 (as a background control) to designated wells in white cell culture plate. Tumour cells* are harvested and resuspended at a concentration of 400,000 cells/mL in R1 media. Twenty five (25) μL/well tumour cells are used in white cell culture plate. Jurkat cells (Promega kit CS196005, 0.5 mL) are thawed in the water bath and then added to 5 ml pre-warmed R1 medium. Twenty five (25) μL/well Jurkat cells are used in white cell culture plate. Incubate the cells and test articles for 6h at 37° C., 5% CO2. At the end of 6 h, add 75 μl/well Bio-Glo™ (Promega) and incubate for 10 min before reading luminescence in a plate reader (Clariostar, BMG). The fold change relative to cells (Jurkat cells+Cell line used in co-culture) is calculated and plotted in GraphPad Prism as log(agonist) vs response to determine EC50 (nM) and Fold Induction over background (Max)
Background: In a reporter assay the amount or activity of a reporter protein is the signal.

Chain of CD137 (Q07011 24-255): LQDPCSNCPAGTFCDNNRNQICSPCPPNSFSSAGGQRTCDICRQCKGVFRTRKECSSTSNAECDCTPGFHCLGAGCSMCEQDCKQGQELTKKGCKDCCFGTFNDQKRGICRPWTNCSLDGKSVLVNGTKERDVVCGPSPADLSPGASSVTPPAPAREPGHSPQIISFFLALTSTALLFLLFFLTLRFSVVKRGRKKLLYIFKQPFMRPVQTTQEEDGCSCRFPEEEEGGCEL

For orientation: EC50 means the concentration needed to bring the measured effect to its halfway point. Read a high EC50 as a less potent agent. Turning to `CCCC[C@@H]1NC(=O)[C@H](Cc2ccc(O)cc2)NC(=O)[C@@H]2CCCN2C(=O)[C@H](CC(=O)O)NC(=O)[C@H](C)NC(=O)[C@H](Cc2ccccc2)NC(=O)[C@@H]2CSCCC(=O)N3CN(CN(C3)C(=O)CCSC[C@@H](C(=O)N[C@@H](CNC(=O)Cn3cc(CCC(=O)NCCCC[C@@H]4NC(=O)[C@H](CCC(N)=O)NC(=O)[C@@H]5CSCCC(=O)N6CN(CN(C6)C(=O)CCSC[C@@H](C(=O)N6CCC[C@H]6C(=O)N[C@@H](CO)C(=O)N[C@@H](Cc6c[nH]cn6)C(N)=O)NC(=O)[C@H](CC(C)C)NC(=O)[C@H](Cc6c[nH]cn6)NC(=O)[C@H](CC(C)C)NC4=O)C(=O)CCSC[C@H](NC(=O)[C@H](CCCCN)NC(=O)[C@H](CC(=O)O)NC(=O)[C@H](CO)NC(C)=O)C(=O)N[C@@H](CO)C(=O)N[C@@H](C)C(=O)NCC(=O)N[C@@H](Cc4c[nH]c6ccccc46)C(=O)N[C@@H](CC(C)C)C(=O)N[C@@H]([C@@H](C)O)C(=O)N[C@@H](CCSC)C(=O)N5)nn3)C(N)=O)NC1=O)C(=O)CCSC[C@H](NC(C)=O)C(=O)N[C@@H](CC(C)(C)C)C(=O)N1CCC[C@H]1C(=O)N[C@@H](CCC(=O)O)C(=O)N[C@H](C)C(=O)N1CCC[C@H]1C(=O)N[C@@H](Cc1ccc(O)cc1)C(=O)N2` [BCY11378], the EC50 is 80 nM and the “Fold Induction over Background” value was found to be 3 fold. Take `CCCC[C@@H]1NC(=O)[C@H](Cc2ccc(O)cc2)NC(=O)[C@@H]2CCCN2C(=O)[C@H](CC(=O)O)NC(=O)[C@H](C)NC(=O)[C@H](Cc2ccccc2)NC(=O)[C@@H]2CSCCC(=O)N3CN(CN(C3)C(=O)CCSC[C@@H](C(=O)N[C@@H](C)C(N)=O)NC1=O)C(=O)CCSC[C@H](NC(C)=O)C(=O)N[C@@H](CC(C)(C)C)C(=O)N1CCC[C@H]1C(=O)N[C@@H](CCCCNC(=O)CCOCCOCCOCCOCCOCCOCCOCCOCCOCCOCCOCCOCCn1cc(CCC(=O)NCCCC[C@@H]3NC(=O)[C@H](CCC(N)=O)NC(=O)[C@@H]4CSCCC(=O)N5CN(CN(C5)C(=O)CCSC[C@@H](C(=O)N5CCC[C@H]5C(=O)N[C@@H](CO)C(=O)N[C@@H](Cc5c[nH]cn5)C(N)=O)NC(=O)[C@H](CC(C)C)NC(=O)[C@H](Cc5c[nH]cn5)NC(=O)[C@H](CC(C)C)NC3=O)C(=O)CCSC[C@H](NC(=O)[C@H](CCCCN)NC(=O)[C@H](CC(=O)O)NC(=O)[C@H](CO)NC(C)=O)C(=O)N[C@@H](CO)C(=O)N[C@@H](C)C(=O)NCC(=O)N[C@@H](Cc3c[nH]c5ccccc35)C(=O)N[C@@H](CC(C)C)C(=O)N[C@@H]([C@@H](C)O)C(=O)N[C@@H](CCSC)C(=O)N4)nn1)C(=O)N[C@H](C)C(=O)N1CCC[C@H]1C(=O)N[C@@H](Cc1ccc(O)cc1)C(=O)N2` [BCY11017]: the “Fold Induction over Background” value is listed as 4 fold. Turning to `CCCC[C@@H]1NC(=O)[C@H](Cc2ccc(O)cc2)NC(=O)[C@@H]2CCCN2C(=O)[C@H](CC(=O)O)NC(=O)[C@H](C)NC(=O)[C@H](Cc2ccccc2)NC(=O)[C@@H]2CSCCC(=O)N3CN(CN(C3)C(=O)CCSC[C@@H](C(=O)N[C@@H](CNC(=O)CCOCCOCCOCCOCCOCCOCCOCCOCCOCCOCCOCCOCCn3cc(CCC(=O)NCCCC[C@@H]4NC(=O)[C@H](CCC(N)=O)NC(=O)[C@@H]5CSCCC(=O)N6CN(CN(C6)C(=O)CCSC[C@@H](C(=O)N6CCC[C@H]6C(=O)N[C@@H](CO)C(=O)N[C@@H](Cc6c[nH]cn6)C(N)=O)NC(=O)[C@H](CC(C)C)NC(=O)[C@H](Cc6c[nH]cn6)NC(=O)[C@H](CC(C)C)NC4=O)C(=O)CCSC[C@H](NC(=O)[C@H](CCCCN)NC(=O)[C@H](CC(=O)O)NC(=O)[C@H](CO)NC(C)=O)C(=O)N[C@@H](CO)C(=O)N[C@@H](C)C(=O)NCC(=O)N[C@@H](Cc4c[nH]c6ccccc46)C(=O)N[C@@H](CC(C)C)C(=O)N[C@@H]([C@@H](C)O)C(=O)N[C@@H](CCSC)C(=O)N5)nn3)C(N)=O)NC1=O)C(=O)CCSC[C@H](NC(C)=O)C(=O)N[C@@H](CC(C)(C)C)C(=O)N1CCC[C@H]1C(=O)N[C@@H](CCC(=O)O)C(=O)N[C@H](C)C(=O)N1CCC[C@H]1C(=O)N[C@@H](Cc1ccc(O)cc1)C(=O)N2` [BCY11019], the fold induction (read-out: Fold Induction over Background) amounted to 6.

The values are drawn from US11453703B2, “Heterotandem bicyclic peptide complexes” (BicycleTX Limited, priority 2018, dated 2022).
